# Assay results taken from ChEMBL document CHEMBL1201862, “PubChem BioAssay data set” (2004).
#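 Step 1: Grow cells in 96-well plates. Step 2: Expose to compound for 48 hours at 5 concentrations. Step 3: Interpolate endpoints linearly; if unreached, use highest concentration. The concentration for 50% growth inhibition is given as GI50.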 Activity calls are given as the source filed them. Cut-off read from the data, not from the text of the source: active = GI50 up to about 1.1 µM and inactive = higher.
# What was measured:
# Assay in all cases: DTP human tumour cell line panel, 48 h
# [1] = system: SK-MEL-5
# [2] = system: SNB-75
# [3] = system: SNB-78
# [4] = system: A549
# [5] = system: OVCAR-8
# [6] = system: HT-29
# [7] = system: SK-MEL-28
# [8] = system: RPMI-8226
# [9] = system: OVCAR-5
# [10] = system: XF498
# [11] = system: M14
# [12] = system: EKVX
# [13] = system: NCI-H226
# [14] = system: SN12C
# [15] = system: LXFL 529
# [16] = system: KM-20L2
# [17] = system: DMS-273
# [18] = system: OVCAR-3
# [19] = system: HCT-15
# [20] = system: M19-MEL
# [21] = system: SF-295
# [22] = system: SR
# [23] = system: RXF 631
# [24] = system: KM12
# [25] = system: IGROV-1
# [26] = system: OVCAR-4
# [27] = system: LOX IMVI
# [28] = system: U-251
# [29] = system: HOP-18
# [30] = system: TK-10
# [31] = system: CCRF-CEM
# [32] = system: NCI-H23
# [33] = system: ACHN
# [34] = system: 786-0
# [35] = system: COLO 205
# [36] = system: NCI-H460
# [37] = system: CAKI-1
# [38] = system: SW-620
# [39] = system: UACC-62
# [40] = system: HOP-92
# [41] = system: DMS-114
# [42] = system: MOLT-4
# [43] = system: SF-268
# [44] = system: SF-539
# [45] = system: Malme-3M
# [46] = system: UO-31
# [47] = system: HCT-116
# [48] = system: SNB-19
# [49] = system: SK-MEL-2
# [50] = system: HCC 2998
# [51] = system: K562
# [52] = system: NCI-H522
# [53] = system: HOP-62
# [54] = system: SK-OV-3
# [55] = system: A498
# [56] = system: HL-60
# [57] = system: DLD-1
# [58] = system: UACC-257
# [59] = system: MDA-MB-231
# [60] = system: PC-3
# [61] = system: RXF 393
# [62] = system: BT-549
smiles,measurement,setting,value
C=C(C)C(=O)OC1C/C(CO)=C\C(O)C/C(C)=C/C2OC(=O)C(=C)C21 (stereo unspecified),GI50,[1],21 µM (inactive)
same,GI50,[2],32.4 µM (inactive)
same,GI50,[3],46.3 µM (inactive)
same,GI50,[4],64.4 µM (inactive)
same,GI50,[5],20.3 µM (inactive)
same,GI50,[6],17.6 µM (inactive)
same,GI50,[7],17.3 µM (inactive)
same,GI50,[8],17.3 µM (inactive)
same,GI50,[9],45.8 µM (inactive)
same,GI50,[10],15.2 µM (inactive)
same,GI50,[11],17.7 µM (inactive)
same,GI50,[12],25.2 µM (inactive)
same,GI50,[13],27.8 µM (inactive)
same,GI50,[14],20 µM (inactive)
same,GI50,[15],16.9 µM (inactive)
same,GI50,[16],30.3 µM (inactive)
same,GI50,[17],27.5 µM (inactive)
same,GI50,[18],25.1 µM (inactive)
same,GI50,[19],14.1 µM
same,GI50,[20],25.6 µM (inactive)
same,GI50,[21],> 100 µM (inactive)
same,GI50,[22],19.9 µM (inactive)
same,GI50,[23],18.4 µM (inactive)
same,GI50,[24],19.2 µM (inactive)
same,GI50,[25],48.4 µM (inactive)
same,GI50,[26],25.9 µM (inactive)
same,GI50,[27],18.5 µM (inactive)
same,GI50,[28],> 100 µM (inactive)
same,GI50,[29],31.3 µM (inactive)
same,GI50,[30],21.1 µM (inactive)
same,GI50,[31],8.65 µM (inactive)
same,GI50,[32],> 10 µM (inactive)
same,GI50,[33],21.3 µM (inactive)
same,GI50,[34],16 µM (inactive)
same,GI50,[35],17.1 µM (inactive)
same,GI50,[36],17.7 µM (inactive)
same,GI50,[37],22.8 µM (inactive)
same,GI50,[38],16.7 µM (inactive)
same,GI50,[39],19.9 µM (inactive)
same,GI50,[40],20.8 µM (inactive)
same,GI50,[41],23.7 µM (inactive)
same,GI50,[42],21.3 µM (inactive)
same,GI50,[43],22.2 µM (inactive)
same,GI50,[44],21 µM (inactive)
same,GI50,[45],20.6 µM (inactive)
same,GI50,[46],> 100 µM (inactive)
same,GI50,[47],17.5 µM (inactive)
same,GI50,[48],> 100 µM (inactive)
same,GI50,[49],17 µM (inactive)
same,GI50,[50],> 10 µM (inactive)
same,GI50,[51],18 µM (inactive)
same,GI50,[52],12.8 µM (inactive)
same,GI50,[53],> 100 µM (inactive)
same,GI50,[54],> 100 µM (inactive)
COc1ccccc1NC(=O)C(CC(C(=O)Nc1ccccc1OC)/C(C)=N/Nc1ccc([N+](=O)[O-])cc1[N+](=O)[O-])/C(C)=N/Nc1ccc([N+](=O)[O-])cc1[N+](=O)[O-] (stereo unspecified),GI50,[1],31.6 µM (inactive)
same,GI50,[2],52.1 µM (inactive)
same,GI50,[3],> 100 µM (inactive)
same,GI50,[4],> 65.5 µM (inactive)
same,GI50,[55],51.1 µM (inactive)
same,GI50,[5],> 71 µM (inactive)
same,GI50,[6],> 100 µM (inactive)
same,GI50,[7],> 83.2 µM (inactive)
same,GI50,[8],63.1 µM (inactive)
same,GI50,[9],> 100 µM (inactive)
same,GI50,[10],51.6 µM (inactive)
same,GI50,[11],40.4 µM (inactive)
same,GI50,[56],41.5 µM (inactive)
same,GI50,[12],> 88.7 µM (inactive)
same,GI50,[57],80.4 µM (inactive)
same,GI50,[13],> 100 µM (inactive)
same,GI50,[14],> 100 µM (inactive)
same,GI50,[15],32.4 µM (inactive)
same,GI50,[16],> 100 µM (inactive)
same,GI50,[17],56 µM (inactive)
same,GI50,[18],77.4 µM (inactive)
same,GI50,[19],> 91.6 µM
same,GI50,[20],> 100 µM (inactive)
same,GI50,[21],> 93.1 µM (inactive)
same,GI50,[22],0.916 µM (active)
same,GI50,[23],40.6 µM (inactive)
same,GI50,[24],58.5 µM (inactive)
same,GI50,[25],54.5 µM (inactive)
same,GI50,[26],> 81.3 µM (inactive)
same,GI50,[27],40.2 µM (inactive)
same,GI50,[28],> 100 µM (inactive)
same,GI50,[29],> 95.3 µM (inactive)
same,GI50,[30],14.6 µM (inactive)
same,GI50,[31],63.5 µM (inactive)
same,GI50,[32],> 83.8 µM (inactive)
same,GI50,[33],> 86.1 µM (inactive)
same,GI50,[34],> 100 µM (inactive)
same,GI50,[35],69 µM (inactive)
same,GI50,[36],> 100 µM (inactive)
same,GI50,[37],41 µM (inactive)
same,GI50,[38],> 94.8 µM (inactive)
same,GI50,[39],> 100 µM (inactive)
same,GI50,[40],54.3 µM (inactive)
same,GI50,[42],1.7 µM (inactive)
same,GI50,[43],> 84.9 µM (inactive)
same,GI50,[44],> 90.2 µM (inactive)
same,GI50,[45],> 100 µM (inactive)
same,GI50,[46],27 µM (inactive)
same,GI50,[47],> 59.3 µM (inactive)
same,GI50,[48],> 100 µM (inactive)
same,GI50,[49],> 100 µM (inactive)
same,GI50,[50],> 82 µM (inactive)
same,GI50,[51],> 65.9 µM (inactive)
same,GI50,[58],> 72.3 µM (inactive)
same,GI50,[52],> 73.1 µM (inactive)
same,GI50,[53],> 95.5 µM (inactive)
same,GI50,[54],> 92.7 µM (inactive)
CC1CCC2C(C)C(=O)OC3OC4(C)CCC1C32OO4 (stereo unspecified),GI50,[1],> 96.2 µM (inactive)
same,GI50,[2],61.7 µM (inactive)
same,GI50,[3],> 100 µM (inactive)
same,GI50,[4],89.1 µM (inactive)
same,GI50,[8],53.2 µM (inactive)
same,GI50,[59],62.4 µM (inactive)
same,GI50,[10],> 100 µM (inactive)
same,GI50,[11],> 100 µM (inactive)
same,GI50,[56],37.4 µM (inactive)
same,GI50,[12],> 97.1 µM (inactive)
same,GI50,[60],66.8 µM (inactive)
same,GI50,[61],72.9 µM (inactive)
same,GI50,[14],> 92.3 µM (inactive)
same,GI50,[15],65.5 µM (inactive)
same,GI50,[16],> 100 µM (inactive)
same,GI50,[17],> 100 µM (inactive)
same,GI50,[18],> 67.3 µM (inactive)
same,GI50,[19],98.4 µM
same,GI50,[20],> 100 µM (inactive)
same,GI50,[21],> 100 µM (inactive)
same,GI50,[23],> 100 µM (inactive)
same,GI50,[25],> 88.9 µM (inactive)
same,GI50,[26],> 72.8 µM (inactive)
same,GI50,[27],97.9 µM (inactive)
same,GI50,[29],61.8 µM (inactive)
same,GI50,[31],83 µM (inactive)
same,GI50,[62],86.5 µM (inactive)
same,GI50,[37],> 100 µM (inactive)
same,GI50,[41],> 80.4 µM (inactive)
same,GI50,[42],66.1 µM (inactive)
same,GI50,[43],> 100 µM (inactive)
same,GI50,[44],> 100 µM (inactive)
same,GI50,[45],> 100 µM (inactive)
same,GI50,[46],82.2 µM (inactive)
same,GI50,[47],81.7 µM (inactive)
same,GI50,[49],> 100 µM (inactive)
same,GI50,[50],> 100 µM (inactive)
same,GI50,[51],33.1 µM (inactive)
same,GI50,[52],45.1 µM (inactive)
same,GI50,[54],> 100 µM (inactive)
